Test results from patent publication US20140113877A1, “NOVEL 3,4,4A,10B-TETRAHYDRO-1H-THIOPYRANO[4,3-C] ISOQUINOLINE COMPOUNDS” (Takeda GmbH, priority 2011, published 2014).

Tests used:
human PDE5 = molecular target: T1, human PDE5 (Homo sapiens, UniProt O76074); experiment: Inhibition of PDE5 activity (SPA, [3H]cGMP, platelet lysate); format: biochemical; conditions: 0.5 μM cGMP, binned: below 8 / between 8 and 9, read-out: PDE5 inhibitory values measured as −logIC50 (converted)
T1 construct: from tissue; host or cells: human platelets from fresh donor blood (platelet lysate)
Description: As a source for human PDE5, platelets were used. For that purpose, 150 ml fresh blood from human donors anticoagulated with citrate [final concentration 0.3% (w/v)] was centrifuged at 200 g for 10 min to obtain the so-called platelet-rich-plasma (PRP) as a supernatant. 1/10 volume of ACD solution (85 mM Na3-citrate, 111 mM D-glucose, 71 mM citric acid, pH 4.4) was added to 9/10 volume of PRP. After centrifugation (1,400 g, 10 min) the cell pellet was resuspended in 3 ml homogenization buffer (NaCl 140 mM, KCl 3.8 mM, EGTA (ethylene glycol tetraacetic acid) 1 mM, MgCl2 1 mM, Tris-HCl 20 mM, beta-mercaptoethanol 1 mM, pH 8.2) plus protease-inhibitor mix resulting in final concentrations of 0.5 mM Pefablock (Roche), 10 μM Leupeptin, 5 μM Trypsine inhibitor, 2 mM Benzamidin and 10 μM Pepstatin A. The suspension was sonicated and thereafter centrifuged for 15 min at 10,000 g. The resulting supernatant (platelet lysate) was used for enzymatic assays.
PDE5 activities were measured in a 96-well platform using SPA (scintillation proximity assay) yttrium silicate beads (RPNQ1050 from GE Healthcare). In a first step the PDE activity operated hydrolysis of either [^3H] cGMP (substrate) into [^3H] 5′GMP. In a second step substrate and product were distinguished following addition of SPA yttrium silicate beads. Indeed, in the presence of zinc sulphate the linear [^3H] […] Close proximity of bound [^3H] […] The test volume was 100 μl and contained 20 mM Tris buffer (pH 7.4), 0.1 mg of BSA (bovine serum albumin)/ml, 5 mM Mg^2+, 1 μM motapizone (PDE3 Inhibitor), 10 nM PDE2 inhibitor 2-(3,4-dimethoxybenzyl)-7-[(1R,2R)-2-hydroxy-1-(2-phenylethyl)propyl]-5-methylimidazo[5,1-f][1,2,4]triazin-4(3H)-one, 0.5 μM cGMP (cyclic guanosine monophosphate) (including about 50,000 cpm of [3H]cGMP as a tracer) (substrate), 1 μl of the respective compound dilution in dimethylsulfoxide (DMSO) and sufficient PDE5-containing platelet lysat (10,000×g supernatant, see above) to ensure that 10-20% of the cGMP was converted under the said experimental conditions. […] After a preincubation of 5 min at 37° C., the reaction was commenced by adding the substrate (cGMP) and the assay was incubated for a further 15 min. The reaction was terminated by adding SPA beads (50 μl). In agreement with the manufacturer's instructions, the SPA beads had previously been resuspended in water, but were then diluted 1:3 (v/v) in water. This diluted solution also contained 3 mM 8-methoxymethyl-3-isobutyl-1-methylxanthine (IBMX) to ensure a complete block of PDE activity. Once the beads were sedimented (>30 min), the MTP's were analyzed in commercially available luminescence detection devices. The corresponding IC50 values of the compounds for inhibition of PDE activity were determined from the concentration-effect curves by means of non-linear regression.
For the following compounds PDE5 inhibitory values [measured as −logIC50 (mol/l)] below 8 and between 8 and 9 have been determined. The numbers of the compounds correspond to the numbers of the examples.

PDE4B1 = molecular target: T2, PDE4B1 (Homo sapiens, UniProt Q07343); experiment: Inhibition of PDE4B1 activity (SPA, [3H]cAMP); format: biochemical; conditions: recombinant PDE4B1, 0.5 μM cAMP; binned: below 8 / between 8 and 9; read-out: PDE4B1 inhibitory values measured as −logIC50 (converted)
T2 construct: made in house; host or cells: SF21 insect cells (baculovirus; virus prepared in SF9 cells)
T2 sequence (Q07343 whole entry): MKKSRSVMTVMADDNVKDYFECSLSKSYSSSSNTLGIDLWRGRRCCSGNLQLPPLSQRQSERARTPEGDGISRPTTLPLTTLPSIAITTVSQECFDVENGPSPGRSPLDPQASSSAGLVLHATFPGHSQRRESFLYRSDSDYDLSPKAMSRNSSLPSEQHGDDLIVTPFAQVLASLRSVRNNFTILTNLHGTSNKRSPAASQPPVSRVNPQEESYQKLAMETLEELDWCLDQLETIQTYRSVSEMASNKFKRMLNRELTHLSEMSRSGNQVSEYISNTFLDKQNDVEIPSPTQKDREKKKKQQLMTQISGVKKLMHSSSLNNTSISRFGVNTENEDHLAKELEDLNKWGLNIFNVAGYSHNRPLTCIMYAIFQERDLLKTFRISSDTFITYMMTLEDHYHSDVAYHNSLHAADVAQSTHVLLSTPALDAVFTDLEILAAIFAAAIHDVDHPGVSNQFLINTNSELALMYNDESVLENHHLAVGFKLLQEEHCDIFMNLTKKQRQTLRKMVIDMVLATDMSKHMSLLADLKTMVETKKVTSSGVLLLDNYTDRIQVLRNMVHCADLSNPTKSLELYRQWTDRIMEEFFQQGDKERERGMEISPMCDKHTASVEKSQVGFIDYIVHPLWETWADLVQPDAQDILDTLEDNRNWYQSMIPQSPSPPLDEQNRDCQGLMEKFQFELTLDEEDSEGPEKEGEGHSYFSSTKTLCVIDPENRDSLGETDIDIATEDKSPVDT
Description: The PDE4B1 (GB no. L20966) was a gift of Prof. M. Conti (Stanford University, USA). It was amplified from the original plasmid (pCMV5) via PCR with primers Rb18 (5′-[…]-3′) and Rb10 (5′-[…]-3′) and cloned into the pCR-Bac vector (Invitrogen, Groningen, NL).
The recombinant baculovirus was prepared by means of homologous recombination in SF9 insect cells. The expression plasmids were cotransfected with Baculo-Gold DNA (Pharmingen, Hamburg) using a standard protocol (Pharmingen, Hamburg). Wt virus-free recombinant virus supernatants were selected using plaque assay methods. After that, high-titre virus supernatants were prepared by amplifying 3 times. PDE4B1 was expressed in SF21 cells by infecting 2×10^6 cells/ml with an MOI (multiplicity of infection) between 1 and 10 in the serum-free SF900 medium (GIBCO Life Technologies, Karlsruhe, Germany). The cells were cultured at 28° C. for 48-72 hours, after which they were pelleted for 5-10 min at 1000×g and 4° C.
The SF21 insect cells were resuspended, at a concentration of approx. 10^7 cells/ml, in ice-cold (4° C.) homogenization buffer (20 mM Tris, pH 8.2, containing the following additions: 140 mM NaCl, 3.8 mM KCl, 1 mM EGTA, 1 mM MgCl2, 10 mM β-mercaptoethanol, 2 mM benzamidine, 0.4 mM Pefablock, 10 μM leupeptin, 10 μM pepstatin A, 5 μM trypsin inhibitor) and disrupted by ultrasonication. The homogenate was then centrifuged for 10 min at 1000×g and the supernatant was stored at −80° C. until subsequent use (see below). The protein content was determined by the Bradford method (BioRad, Munich) using BSA (Bovine serum albumin) as the standard.
PDE4B1 activities were measured in a 96-well platform using SPA (scintillation proximity assay) yttrium silicate beads (RPNQ1050 from GE Healthcare). In a first step the PDE activity operated hydrolysis of either [^3H] cAMP (substrate) into [^3H] 5′AMP. In a second step substrate and product were distinguished following addition of SPA yttrium silicate beads. Indeed, in the presence of zinc sulphate the linear [^3H] […] Close proximity of bound [^3H] […] The test volume was 100 μl and finally contained 20 mM Tris buffer (pH 7.4), 0.1 mg/ml of BSA, 5 mM Mg^2+, 0.5 μM cAMP (including about 50,000 cpm of [3H]cAMP) as substrate, 1 μl of the respective substance dilution in DMSO and sufficient recombinant PDE (1000×g supernatant, see above) to ensure that 10-20% of the cAMP was converted under the said experimental conditions. […] After a preincubation of 5 min at 37° C., the reaction was commenced by adding the substrate (cAMP) and the assays were incubated for a further 15 min. Reactions were terminated by adding SPA beads (50 μl). In agreement with the manufacturer's instructions, the SPA beads had previously been resuspended in water, but were then diluted 1:3 (v/v) in water. This diluted solution further contained 3 mM IBMX (isobutylmethylxanthine) to ensure a complete block of PDE activity. Once the beads were sedimented (>30 min), the MTP's (microtiter plate) were analyzed in commercially available luminescence detection devices. The corresponding IC50 values of the compounds for inhibition of PDE4B1 activity were determined from the concentration-effect curves by means of non-linear regression.
For the following compounds PDE4B1 inhibitory values [measured as −logIC50 (mol/l)] below 8 and between 8 and 9 have been determined. The numbers of the compounds correspond to the numbers of the examples.

Row | Structure (SMILES) | IC50 (human PDE5) [nM] | IC50 (PDE4B1) [nM]
1 | CCOc1cc2c(cc1OC)C(c1ccc(C(=O)N3CCC(n4c(=O)c5sc(-c6ccc7c(c6)OCO7)cc5n(Cc5ccc(OC)c(F)c5)c4=O)CC3)cc1)=N[C@@H]1CCSC[C@H]21 [Example 8, 6-(1,3-benzodioxol-5-yl)-3-[1-({4-[(4aR,10bR)-9-ethoxy-8-methoxy-3,4,4a,10b-tetrahydro-1H-thiopyrano[4,3-c]isoquinolin-6-yl]phenyl}carbonyl)piperidin-4-yl]-1-(3-fluoro-4-methoxybenzyl)thieno[3,2-d]pyrimidine-2,4(1H,3H)-dione] | 1 to 10 | 1 to 10
2 | CCOc1cc2c(cc1OC)C(c1ccc(C(=O)N3CCC(n4c(=O)c5sc(-c6ccc(F)cc6OC)cc5n(Cc5ccc(OC)c(F)c5)c4=O)CC3)cc1)=N[C@@H]1CCSC[C@H]21 [Example 9, 3-[1-({4-[(4aR,10bR)-9-ethoxy-8-methoxy-3,4,4a,10b-tetrahydro-1H-thiopyrano[4,3-c]isoquinolin-6-yl]phenyl}carbonyl)piperidin-4-yl]-1-(3-fluoro-4-methoxybenzyl)-6-(4-fluoro-2-methoxyphenyl)thieno[3,2-d]pyrimidine-2,4(1H,3H)-dione] | 1 to 10 | 1 to 10
3 | CCOc1cc2c(cc1OC)C(c1ccc(C(=O)N3CCC(n4c(=O)c5sc(-c6cc(F)ccc6OC)cc5n(Cc5ccc(OC)c(F)c5)c4=O)CC3)cc1)=N[C@@H]1CCSC[C@H]21 [Example 10, 3-[1-({4-[(4aR,10bR)-9-ethoxy-8-methoxy-3,4,4a,10b-tetrahydro-1H-thiopyrano[4,3-c]isoquinolin-6-yl]phenyl}carbonyl)piperidin-4-yl]-1-(3-fluoro-4-methoxybenzyl)-6-(5-fluoro-2-methoxyphenyl)thieno[3,2-d]pyrimidine-2,4(1H,3H)-dione] | 1 to 10 | 1 to 10
4 | CCOc1cc2c(cc1OC)C(c1ccc(C(=O)N3CCC(n4c(=O)c5sc(-c6cc(OC)ccc6OC)cc5n(Cc5ccc(OC)c(F)c5)c4=O)CC3)cc1)=N[C@@H]1CCSC[C@H]21 [Example 11, 6-(2,5-dimethoxyphenyl)-3-[1-({4-[(4aR,10bR)-9-ethoxy-8-methoxy-3,4,4a,10b-tetrahydro-1H-thiopyrano[4,3-c]isoquinolin-6-yl]phenyl}carbonyl)piperidin-4-yl]-1-(3-fluoro-4-methoxybenzyl)thieno[3,2-d]pyrimidine-2,4(1H,3H)-dione] | 1 to 10 | 1 to 10
5 | CCOc1cc2c(cc1OC)C(c1ccc(C(=O)N3CCC(n4c(=O)c5sc(-c6ccccc6F)cc5n(Cc5ccc(OC)c(F)c5)c4=O)CC3)cc1)=N[C@@H]1CCSC[C@H]21 [Example 12, 3-[1-({4-[(4aR,10bR)-9-ethoxy-8-methoxy-3,4,4a,10b-tetrahydro-1H-thiopyrano[4,3-c]isoquinolin-6-yl]phenyl}carbonyl)piperidin-4-yl]-1-(3-fluoro-4-methoxybenzyl)-6-(2-fluorophenyl)thieno[3,2-d]pyrimidine-2,4(1H,3H)-dione] | 1 to 10 | 1 to 10
6 | CCOc1cc2c(cc1OC)C(c1ccc(C(=O)N3CCC(n4c(=O)c5sc(-c6ccc(F)cc6)cc5n(Cc5ccc(OC)c(F)c5)c4=O)CC3)cc1)=N[C@@H]1CCSC[C@H]21 [Example 13, 3-[1-({4-[(4aR,10bR)-9-ethoxy-8-methoxy-3,4,4a,10b-tetrahydro-1H-thiopyrano[4,3-c]isoquinolin-6-yl]phenyl}carbonyl)piperidin-4-yl]-1-(3-fluoro-4-methoxybenzyl)-6-(4-fluorophenyl)thieno[3,2-d]pyrimidine-2,4(1H,3H)-dione] | 1 to 10 | 1 to 10
7 | CCOc1cc2c(cc1OC)C(c1ccc(C(=O)N3CCC(n4c(=O)c5sc(-c6ccc(F)cc6OC)cc5n(Cc5cc(F)c(OC)c(F)c5)c4=O)CC3)cc1)=N[C@@H]1CCSC[C@H]21 [Example 14, 1-(3,5-difluoro-4-methoxybenzyl)-3-[1-({4-[(4aR,10bR)-9-ethoxy-8-methoxy-3,4,4a,10b-tetrahydro-1H-thiopyrano[4,3-c]isoquinolin-6-yl]phenyl}carbonyl)piperidin-4-yl]-6-(4-fluoro-2-methoxyphenyl)thieno[3,2-d]pyrimidine-2,4(1H,3H)-dione] | 1 to 10 | > 10
8 | CCOc1cc2c(cc1OC)C(c1ccc(C(=O)N3CCC(n4c(=O)c5sc(-c6ccc(F)cc6OC)cc5n(Cc5ccc(OC)c(F)c5F)c4=O)CC3)cc1)=N[C@@H]1CCSC[C@H]21 [Example 15, 1-(2,3-difluoro-4-methoxybenzyl)-3-[1-({4-[(4aR,10bR)-9-ethoxy-8-methoxy-3,4,4a,10b-tetrahydro-1H-thiopyrano[4,3-c]isoquinolin-6-yl]phenyl}carbonyl)piperidin-4-yl]-6-(4-fluoro-2-methoxyphenyl)thieno[3,2-d]pyrimidine-2,4(1H,3H)-dione] | > 10 | 1 to 10
9 | CCOc1cc2c(cc1OC)C(c1ccc(C(=O)N3CCC(n4c(=O)c5sc(-c6ccc(F)cc6OC)cc5n(Cc5ccc(C)c(F)c5)c4=O)CC3)cc1)=N[C@@H]1CCSC[C@H]21 [Example 16, 3-[1-({4-[(4aR,10bR)-9-ethoxy-8-methoxy-3,4,4a,10b-tetrahydro-1H-thiopyrano[4,3-c]isoquinolin-6-yl]phenyl}carbonyl)piperidin-4-yl]-6-(4-fluoro-2-methoxyphenyl)-1-(3-fluoro-4-methylbenzyl)thieno[3,2-d]pyrimidine-2,4(1H,3H)-dione] | 1 to 10 | 1 to 10
